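A five-concentration, 48-hour dose response in 96-well plates underlies each endpoint, interpolated linearly between surrounding concentrations. GI50 marks 50% less growth.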 The source made the active and inactive calls. Rule as the data show it: active = GI50 up to about 1.1 µM and inactive = higher.
What was measured:
Test in all cases: NCI anticancer screen, dose series, 48 h
[1] = test system: MDA-N
[2] = test system: MCF7
[3] = test system: BT-549

Structure (SMILES) | GI50 [1] | GI50 [2] | GI50 [3]
CN1N=C(c2ccncc2)OC1c1ccccc1F (stereo not given) | > 100 µM (inactive) |  | 
CSc1nc(-c2ccccc2)[nH]c(=O)n1 |  | > 100 µM (inactive) | > 100 µM (inactive)
O=[N+]([O-])c1ccc(Cl)c2c([N+](=O)[O-])cccc12 | 2.18 µM (inactive) | 4.43 µM (inactive) | 
N#CC(C(=O)c1ccccc1F)c1nc2cc(C(F)(F)F)ccc2s1 (stereo not given) |  |  | 23 µM (inactive)
CCOC(=O)C(C)NC(=O)C(C)NC(=O)C(C)NC(=O)C(C)NC(=O)C(C)NC(=O)OCc1ccccc1 (stereo not given) | > 100 µM (inactive) | > 100 µM (inactive) | > 100 µM (inactive)
C=CCCCC1(C)CCCCNC1=O (stereo not given) | > 10 µM (inactive) | > 10 µM (inactive) | > 10 µM (inactive)
CC1(C)S[C@@H]2[C@H](N3C(=O)c4ccccc4C3=O)CN2[C@H]1NC(=O)N[C@@H]1N2C[C@@H](N3C(=O)c4ccccc4C3=O)[C@H]2SC1(C)C |  | > 100 µM (inactive) | 
COC([C@@H](OC(=O)c1ccccc1)[C@H](OC(=O)c1ccccc1)C(O)COC(=O)c1ccccc1)n1cc(C)c(=O)[nH]c1=O (stereo not given in full) | 30.9 µM (inactive) | 13 µM (inactive) | 21.3 µM (inactive)
CCN(CC)C(=S)SNCc1ccc(S(N)(=O)=O)cc1 | 15.6 µM (inactive) |  | 18.5 µM (inactive)
O=Cc1ccc(-c2cc(C=O)c(-c3cccs3)[nH]2)s1 | 18.6 µM (inactive) | 19.4 µM (inactive) | 28.2 µM (inactive)
COC1=N[C@H](C(C)C)C(OC)=N[C@H]1Cc1ccc(C[C@@H]2N=C(OC)[C@@H](C(C)C)N=C2OC)s1 | 49.3 µM (inactive) | 20.3 µM (inactive) | > 100 µM (inactive)
CC(C)(C)OC(=O)NCCCCC1NC(=O)[C@@H]2Cc3c([nH]c4ccccc34)C(c3ccccc3)N2C1=O (stereo not given in full) | 29.4 µM (inactive) | 35.2 µM (inactive) | 21.9 µM (inactive)
O=c1oc2ncccc2n1Cc1ccc([N+](=O)[O-])cc1 | > 100 µM (inactive) | > 100 µM (inactive) | 38.1 µM (inactive)
CC1C2=C(O)CC(C)(C)CC2=NC2=C1C(=O)CC(C)(C)C2 (stereo not given) |  | > 100 µM (inactive) | > 100 µM (inactive)
NC(=O)C[C@H](NC(=O)C1(NC(=O)[C@H](Cc2ccc(CP(=O)(O)O)cc2)NC(=O)C(=O)O)CCCCC1)C(=O)NCCCc1cccc2ccccc12 | > 10 µM (inactive) | > 10 µM (inactive) | > 10 µM (inactive)
CC[N+]1(C)CCC(O)(/C=C/c2ccc(Cl)cc2)C(C(=O)/C=C/c2ccc(Cl)cc2)C1 (stereo not given) | 3.45 µM (inactive) | 3.92 µM (inactive) | 13.8 µM (inactive)
CN(C)C1(N(C)C)Oc2c(c(=O)n(C)c(=O)n2C)C(c2ccc(C(F)(F)F)cc2)C1(F)F (stereo not given) |  | > 100 µM (inactive) | > 100 µM (inactive)
O=C1NC(N2CCCC(CO)C2)=N/C1=C\c1ccccc1 (stereo not given) | > 100 µM (inactive) | > 100 µM (inactive) | > 100 µM (inactive)
CC1=C(C)SC(=C2Sc3c(n(C)c(=O)n(C)c3=O)S2)S1 | 47.6 µM (inactive) | > 100 µM (inactive) | 57.1 µM (inactive)
N=C(NCc1ccccc1)N/N=C\c1ccnc2ccccc12 | 10.9 µM (inactive) | 11.7 µM (inactive) | 4.56 µM (inactive)
Cc1ccc2c(c1)NC(c1ccc(C(=O)O)cc1)c1cccn1-2 (stereo not given) | 75.2 µM (inactive) | 25.1 µM (inactive) | 61.2 µM (inactive)
CC(=O)c1cc(C)n2c1CS[C@@H]2c1ccccc1 |  | 35.9 µM (inactive) | 37.2 µM (inactive)
Oc1ccc(-c2nc(-c3cccnc3)c(-c3ccc(Cl)cc3)[nH]2)cc1O | 11.7 µM (inactive) | 11.5 µM (inactive) | 10 µM (inactive)

Structure (SMILES) | GI50 [1] | GI50 [2] | GI50 [3]
CCOC(=O)/C(=C\NCc1ccc2c(c1)OCO2)c1nc2ccccc2[nH]1 | 75 µM (inactive) | 59.8 µM (inactive) | 83.4 µM (inactive)
O=C(NCCNCCO)N/N=C/c1ccc([N+](=O)[O-])cc1 | 61.4 µM (inactive) | 48.9 µM (inactive) | > 100 µM (inactive)
CC1(C)C2CCC(=O)C1C(OCc1ccccc1)C2 (stereo not given) | > 100 µM (inactive) | > 100 µM (inactive) | 94 µM (inactive)
O=C(/C=C/c1ccc2ccccc2c1)NCc1ccc(C(=O)NCc2ccccc2)cc1 |  | > 83.6 µM (inactive) | 32.9 µM (inactive)
CC(C)C1OC(N)=C(C#N)C1(C#N)C#N (stereo not given) | 38.2 µM (inactive) | 69.7 µM (inactive) | 
NC(=S)NS(=O)(=O)c1ccc(F)cc1 | > 100 µM (inactive) |  | > 100 µM (inactive)
CCn1c(-c2ccc(/N=N/Nc3ccc(-c4n[nH]c(=S)n4CC)cc3)cc2)n[nH]c1=S | 3.19 µM (inactive) | 3.33 µM (inactive) | 1.66 µM (inactive)
CCSC12OC3(CCCCCN3C1=O)C1C(=O)N(c3ccccc3)C(=O)C12 (stereo not given) | > 100 µM (inactive) |  | > 100 µM (inactive)
CC1CC[C@@]2(OC1)O[C@H]1[C@H](O)[C@H]3[C@@H]4CC[C@H]5C[C@@H](OC6OC(CO)C(OC7OC(CO)C(O)C(OC8OCC(O)C(O)C8O)C7OC7OC(CO)C(O)C(O)C7OC7OC(CO)C(O)C(O)C7O)C(O)C6O)[C@H](O)C[C@]5(C)[C@H]4CC[C@]3(C)[C@H]1[C@@H]2C (stereo not given in full) | > 10 µM (inactive) | 2.82 µM (inactive) | > 10 µM (inactive)
Oc1nc(-c2cccc(F)c2)nc2ccccc12 | > 62.8 µM (inactive) | 87.1 µM (inactive) | > 46.9 µM (inactive)
COc1cccc([C@@H]2C/C(=N\NC(=O)C(=O)N[C@@H](C)c3ccccc3)c3cc4c(cc3N2)OCO4)c1 | 7.19 µM (inactive) | 8.32 µM (inactive) | 
O=C1c2scc(-c3ccc(F)cc3)c2-n2cccc21 | 8.67 µM (inactive) | 21.2 µM (inactive) | 13.6 µM (inactive)
Cc1cc(C)c(C#N)c(SC(=S)NC(=O)c2ccccc2)n1 | > 100 µM (inactive) | > 100 µM (inactive) | > 100 µM (inactive)
O=C1/C(=C/c2ccccc2S)N=C(c2ccccc2)N1c1nc2ccc(Sc3ccccc3)cc2[nH]1 | 14.7 µM (inactive) | 27 µM (inactive) | 22.1 µM (inactive)
Oc1ccc2ccccc2c1-c1c(Nc2ccccc2)ccc2ccccc12 | 6.22 µM (inactive) | 13 µM (inactive) | 16.3 µM (inactive)
CC(=O)OC(=C(C#N)C#N)c1nccnc1C(C)=O | 6.17 µM (inactive) | > 20 µM (inactive) | 13.3 µM (inactive)
COc1ccccc1N1CCN(Cn2c(=O)oc3cccnc32)CC1 | > 100 µM (inactive) | > 100 µM (inactive) | 
COc1ccc(/C=N/n2c(Cc3ccccc3)n[nH]c2=O)c(OC)c1 | > 100 µM (inactive) | > 100 µM (inactive) | 8.2 µM (inactive)
COc1ccc2nccc(SCC(=O)O)c2c1 | > 100 µM (inactive) |  | > 100 µM (inactive)
O=C1CC(c2ccc(Cl)cc2)C2(C(=O)NC(=S)NC2=O)C(c2ccc(Cl)cc2)C1 (stereo not given) | 17.2 µM (inactive) | 17.3 µM (inactive) | 
COC1(CC[C@@H](C)COC2OC(CO)C(O)C(O)C2O)OC2C[C@H]3[C@@H]4CC[C@H]5C[C@@H](OC6OC(CO)C(OC7OC(CO)C(O)C(O)C7O)C(O)C6OC6OC(C)C(O)C(O)C6O)[C@H](O)C[C@]5(C)[C@H]4CC[C@]3(C)C2[C@@H]1C (stereo not given in full) | 2.19 µM (inactive) | 2.88 µM (inactive) | 
CCOC(=O)CSc1[nH]c2nc(C)nc(Cl)c2c1C#N | > 10 µM (inactive) | > 10 µM (inactive) | 
COc1cc(/C=C/c2ccnc3ccccc23)cc(OC)c1OC | 0.351 µM (active) | 5.22 µM (inactive) | 
